What is called IC50 is the concentration that gives 50% inhibition. A high value points to a need for much substance. Broadly, the melting point is the temperature of the solid-liquid transition.

Where a name gives a salt, the structure may show the parent alone.

The source of these data is US6977262B2, “Dihydropyrazolopyridine compounds and pharmaceutical use thereof” (Mitsubishi Pharma Corporation, priority 2001, dated 2005).

Chain of rabbit GSK-3β (G1T8E2 1-432): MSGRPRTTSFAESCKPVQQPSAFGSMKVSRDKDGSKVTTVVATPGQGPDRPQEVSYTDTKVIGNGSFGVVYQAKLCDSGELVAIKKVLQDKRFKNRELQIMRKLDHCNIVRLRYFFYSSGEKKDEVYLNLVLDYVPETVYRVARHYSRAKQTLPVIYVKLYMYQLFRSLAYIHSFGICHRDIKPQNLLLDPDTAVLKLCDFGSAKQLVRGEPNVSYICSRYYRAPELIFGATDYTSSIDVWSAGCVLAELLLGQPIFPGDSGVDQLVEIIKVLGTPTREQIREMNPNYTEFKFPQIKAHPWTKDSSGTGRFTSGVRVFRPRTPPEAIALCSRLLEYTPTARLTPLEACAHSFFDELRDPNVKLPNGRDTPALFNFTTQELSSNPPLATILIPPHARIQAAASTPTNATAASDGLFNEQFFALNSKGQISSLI

The target of the first data set is rabbit GSK-3β (Oryctolagus cuniculus, UniProt G1T8E2). Description: GSK-3β-inhibitory activity (phosphorylation of CREB phosphopeptide, [γ-32P]ATP, scintillation counting). The data set is classed as biochemical. Particulars: rabbit GSK-3β (0.5 unit), 30° C. for 20 minutes, Table 1. How it is done:
CREB phosphopeptide ([…]), rabbit GSK-3β (0.5 unit), ATP ([…]), [γ-^32P]ATP (12.3 kBq) and a test compound were reacted in a GSK-3β buffer solution (25 μL) (20 mmol/L Tris-HCl (pH 7.5), 10 mmol/L magnesium chloride, 5 mmol/L dithiothreitol) containing 1% dimethyl sulfoxide, at 30° C. for 20 minutes. The reaction product (10 μL) was adsorbed on a P81 ion-exchange paper, and the paper was washed with phosphoric acid (100 mmol/L) and measured for cpm on a scintillation counter.
CREB Phosphopeptide is Lys-Arg-Arg-Glu-Ile-Leu-Ser-Arg-Arg-Pro-Ser(P)-Tyr-Arg.
Regarding `CC(=O)CC1=C(C#N)C(c2cccc(C#N)c2Br)c2c[nH]nc2N1` (stereo not drawn) [Example 1063, 6-Acetylmethyl-4-(2-bromo-3-cyanophenyl)-5-cyano-4,7-dihydro-2H-pyrazolo[3,4-b]pyridine], 3 nM corresponded to half-maximal inhibition (IC50). Still for that read-out and setting: for `N#CC1=C(C2CCNCC2)Nc2n[nH]cc2C1c1cccc2nonc12` (stereo not drawn) [Example 1002, 4-(2,1,3-Benzoxadiazol-4-yl)-5-cyano-4,7-dihydro-6-(piperidin-4-yl)-2H-pyrazolo[3,4-b]pyridine] the value was 10 nM; for `N#CC1=C([C@@H]2C[C@H]3CC[C@@H]2NC3)Nc2n[nH]cc2C1c1cccc(C#N)c1Br` (stereo partly drawn) [Example 1146, 6-(exo-2-Azabicyclo[2,2,2]octan-6-yl)-4-(2-bromo-3-cyanophenyl)-5-cyano-4,7-dihydro-2H-pyrazolo[3,4-b]pyridine 2 Hydrochloride], 0.61 nM. The same measure, in the same setting: for `CN1CCOC(C2=C(C#N)C(c3cccc4nonc34)c3c[nH]nc3N2)C1` (stereo not drawn) [Example 1011, 4-(2,1,3-Benzoxadiazol-4-yl)-5-cyano-4,7-dihydro-6-(4-methylmorpholin-2-yl)-2H-pyrazolo[3,4-b]pyridine] the value was 14 nM; for `CN1CCC(C2=C(C#N)C(c3cccc4nonc34)c3c[nH]nc3N2)CC1` (stereo not drawn) [Example 1003, 4-(2,1,3-Benzoxadiazol-4-yl)-5-cyano-4,7-dihydro-6-(1-methylpiperidin-4-yl)-2H-pyrazolo[3,4-b]pyridine], 2.5 nM; for `CN1C[C@@H]2CC[C@H]1[C@H](C1=C(C#N)C(c3cccc(C#N)c3Br)c3c[nH]nc3N1)C2` (stereo partly drawn) [Example 1148, 4-(2-Bromo-3-cyanophenyl)-5-cyano-4,7-dihydro-6-(exo-2-methyl-2-azabicyclo[2,2,2]octan-6-yl)-2H-pyrazolo[3,4-b]pyridine], 3.2 nM. In turn, `CCCC1=C(c2nnc(C)o2)C(c2cccc(C#N)c2Br)c2c[nH]nc2N1` (stereo not drawn) [Example 1158, 4-(2-Bromo-3-cyanophenyl)-4,7-dihydro-5-(5-methyl-1,3,4-oxadiazol-2-yl)-6-propyl-2H-pyrazolo[3,4-b]pyridine] yielded an IC50 of 0.65 nM. The same measure, in the same setting: for `CN(C)C1CCC(C2=C(C#N)C(c3cccc4nonc34)c3c[nH]nc3N2)CC1` (stereo not drawn) [Example 1023, 4-(2,1,3-Benzoxadiazol-4-yl)-5-cyano-4,7-dihydro-6-(4-(N,N-dimethylamino)cyclohexyl)-2H-pyrazolo[3,4-b]pyridine] the value was 4.1 nM; for `N#CC1=C(C2CCCCC2=O)Nc2n[nH]cc2C1c1cccc2nonc12` (stereo not drawn) [Example 1058, 4-(2,1,3-Benzoxadiazol-4-yl)-5-cyano-4,7-dihydro-6-(2-oxocyclohexan-1-yl)-2H-pyrazolo[3,4-b]pyridine], 1.8 nM. Turning to `N#CC1=C(C2CCCCN2)Nc2n[nH]cc2C1c1cccc2nonc12` (stereo not drawn) [Example 1008, 4-(2,1,3-Benzoxadiazol-4-yl)-5-cyano-4,7-dihydro-6-(piperidin-2-yl)-2H-pyrazolo[3,4-b]pyridine], the IC50 was determined as 3.7 nM. Compared with the last molecule, the IC50 is about 2.1-fold higher. Same read-out and setting: for `CNC(C)C1=C(C#N)C(c2cccc(C#N)c2Br)c2c[nH]nc2N1` (stereo not drawn) [Example 1155, 4-(2-Bromo-3-cyanophenyl)-5-cyano-4,7-dihydro-6-(1-(methylamino)ethyl)-2H-pyrazolo[3,4-b]pyridine 2 Hydrochloride] the value was 2.2 nM.

System in another data set: not given
Experiment: not given
Details: not given
For `CC(=O)CC1=C(C#N)C(c2cccc(C#N)c2Br)c2c[nH]nc2N1` (stereo not drawn) [Example 1063, 6-Acetylmethyl-4-(2-bromo-3-cyanophenyl)-5-cyano-4,7-dihydro-2H-pyrazolo[3,4-b]pyridine], the melting point stood at 230 °C. On the same count and under the same terms, for `N#CC1=C(C2CCNCC2)Nc2n[nH]cc2C1c1cccc2nonc12` (stereo not drawn) [Example 1002, 4-(2,1,3-Benzoxadiazol-4-yl)-5-cyano-4,7-dihydro-6-(piperidin-4-yl)-2H-pyrazolo[3,4-b]pyridine] the value was 216 °C; for `N#CC1=C(c2ccccc2)Nc2n[nH]cc2C1c1cccc(Cl)c1Cl` (stereo not drawn) [Example 145, 5-Cyano-4-(2,3-dichlorophenyl)-4,7-dihydro-6-phenyl-2H-pyrazolo[3,4-b]pyridine], 162 °C. Same read-out and setting: under `N#CC1=C(C2CCCCC2)Nc2n[nH]cc2C1c1ccccc1Cl` (stereo not drawn) [Example 306, 4-(2-Chlorophenyl)-5-cyano-6-cyclohexyl-4,7-dihydro-2H-pyrazolo[3,4-b]pyridine] stands 163 °C; under `CCCC1=C(C(=O)OCC)C(c2c(F)cccc2F)c2c[nH]nc2N1` (stereo not drawn) [Example 54, Ethyl 4-(2,6-difluorophenyl)-4,7-dihydro-6-propyl-2H-pyrazolo[3,4-b]pyridine-5-carboxylate], 185 °C; under `CCCC1=C(C#N)C(c2cccc(C)n2)c2c[nH]nc2N1` (stereo not drawn) [Example 359, 5-Cyano-4,7-dihydro-4-(6-methylpyridin-2-yl)-6-propyl-2H-pyrazolo[3,4-b]pyridine], 177 to 181 °C.

`N#CC1=C(C2CC2)Nc2n[nH]cc2C1c1cccc(N2CCOCC2)c1` (stereo not drawn) [Example 366, 5-Cyano-6-cyclopropyl-4,7-dihydro-4-(3-(morpholin-4-yl)phenyl)-2H-pyrazolo[3,4-b]pyridine] showed a melting point of over 260 °C.

In turn, `N#CC1=C(C2CCN(C(=O)c3ccccc3)CC2)Nc2n[nH]cc2C1c1cccc(C#N)c1Br` (stereo not drawn) [Example 1052, 6-(1-Benzoylpiperidin-4-yl)-4-(2-bromo-3-cyanophenyl)-5-cyano-4,7-dihydro-2H-pyrazolo[3,4-b]pyridine] showed a melting point of over 280 °C. Still for that read-out and setting: for `CCCC1=C(C#N)C(c2ccccc2Cl)c2c(n[nH]c2C(OC)OC)N1` (stereo not drawn) [Example 336, 4-(2-Chlorophenyl)-5-cyano-4,7-dihydro-3-dimethoxymethyl-6-propyl-2H-pyrazolo[3,4-b]pyridine] the value was 212 °C; for `CCCC1=C(C(=O)OCC)C(c2cccc(C#N)c2OC)c2c[nH]nc2N1` (stereo not drawn) [Example 191, Ethyl 4-(3-cyano-2-methoxyphenyl)-4,7-dihydro-6-propyl-2H-pyrazolo[3,4-b]pyridine-5-carboxylate], 220 to 222 °C.

Consider `CCCOc1ccccc1C1C(C(=O)OCC)=C(CCC)Nc2n[nH]cc21` (stereo not drawn) [Example 34, Ethyl 4,7-dihydro-4-(2-propoxyphenyl)-6-propyl-2H-pyrazolo[3,4-b]pyridine-5-carboxylate], for which the melting point came out at 205 °C. Same read-out and setting: for `N#CC1=C(C2CCCNC2)Nc2n[nH]cc2C1c1cccc2nonc12` (stereo not drawn) [Example 1005, 4-(2,1,3-Benzoxadiazol-4-yl)-5-cyano-4,7-dihydro-6-(piperidin-3-yl)-2H-pyrazolo[3,4-b]pyridine] the value was 202 °C; for `N#CC1=C(c2ccccc2)Nc2n[nH]cc2C1c1ccccc1Cl` (stereo not drawn) [Example 142, 4-(2-Chlorophenyl)-5-cyano-4,7-dihydro-6-phenyl-2H-pyrazolo[3,4-b]pyridine], 158 °C.

For the molecule `N#CC1=C(c2ccccc2)Nc2n[nH]cc2C1c1cccc2ccccc12` (stereo not drawn) [Example 146, 5-Cyano-4,7-dihydro-4-(naphthalen-1-yl)-6-phenyl-2H-pyrazolo[3,4-b]pyridine], the melting point worked out at 174 °C. On the same count and under the same terms, under `CCCC1=C(C(=O)OCC)C(c2cccc(C)c2Cl)c2c[nH]nc2N1` (stereo not drawn) [Example 178, Ethyl 4-(2-chloro-3-methylphenyl)-4,7-dihydro-6-propyl-2H-pyrazolo[3,4-b]pyridine-5-carboxylate] stands 198 to 200 °C; under `CCCC1=C(C#N)C(c2ccccc2Br)c2c[nH]nc2N1` (stereo not drawn) [Example 128, 4-(2-Bromophenyl)-5-cyano-4,7-dihydro-6-propyl-2H-pyrazolo[3,4-b]pyridine], 237 °C. The molecule `COc1ccccc1C1=C(C#N)C(c2cccc3nsnc23)c2c[nH]nc2N1` (stereo not drawn) [Example 163, 4-(2,1,3-Benzothiadiazol-4-yl)-5-cyano-4,7-dihydro-6-(2-methoxyphenyl)-2H-pyrazolo[3,4-b]pyridine] gave a melting point of 231 °C. Same read-out and setting: for `CCCC1=C(C(=O)OCC)C(C)(c2ccccc2)c2c[nH]nc2N1` (stereo not drawn) [Example 108, Ethyl 4,7-dihydro-4-methyl-4-phenyl-6-propyl-2H-pyrazolo[3,4-b]pyridine-5-carboxylate] the value was 207 °C; for `N#CC1=C(C2CC2)Nc2n[nH]cc2C1c1cccc2nocc12` (stereo not drawn) [Example 333, 4-(2,1-Benzoisoxazol-4-yl)-5-cyano-6-cyclopropyl-4,7-dihydro-2H-pyrazolo[3,4-b]pyridine], 248 °C; for `CCCC1=C(C#N)C(c2cccc3c2OCCC3)c2c[nH]nc2N1` (stereo not drawn) [Example 136, 5-Cyano-4-(3,4-dihydro-2H-benzopyran-8-yl)-4,7-dihydro-6-propyl-2H-pyrazolo[3,4-b]pyridine], 230 °C. Still for that read-out and setting: under `N#CC1=C(c2cccs2)Nc2n[nH]cc2C1c1ccccc1[N+](=O)[O-]` (stereo not drawn) [Example 244, 5-Cyano-4,7-dihydro-4-(2-nitrophenyl)-6-(thiophen-2-yl)-2H-pyrazolo[3,4-b]pyridine] stands 165 °C; under `CCC1=C(C#N)C(c2ccccc2Br)c2c[nH]nc2N1` (stereo not drawn) [Example 199, 4-(2-Bromophenyl)-5-cyano-6-ethyl-4,7-dihydro-2H-pyrazolo[3,4-b]pyridine], 250 to 253 °C (dec.).
